From paper PMC10122656, “Siglec-6 mediates the uptake of extracellular vesicles through a noncanonical glycolipid binding pocket” (Nature Communications, 2023)
Values joined by “and” are separate entries in the source; they are usually repeats but may differ in a detail not shown here. Identical values can stand only once.

Key:
[1] = tested on: Siglec-1-Fc R116A; assay: Ganglioside ELISA; format: binding, human; conditions: Figure 2c, replicates
Procedure: Siglec-Fc constructs designed by Rodrigues et al.[30] were used in this work. Siglec-Fc constructs were expressed using WT CHO cells in cell culture media as described above with 1% HEPES. Cells incubated as described above for one-week post confluency. The supernatant was harvested and stored at 4 °C.
The purification was heavily inspired by Rodrigues et al.[30]. The purification of the Siglec-Fcs from supernatant began with Ni^2+ affinity chromatography using an AKTA FPLC equipped with a HisTrap Excel column (GE). The column was equilibrated with fifteen column volumes (CVs) of equilibrium buffer (500 mM NaCl, 20 mM NaPO4H2, pH 7.4). The Siglec-Fc containing supernatant was then loaded in its entirety onto the column. The column was then washed with fifteen CVs of wash buffer (500 mM NaCl, 30 mM imidazole, 20 mM NaPO4H2, pH 7.4). The Siglec-Fc was then eluted in 20 in 1 mL fractions with twenty CVs of elution buffer (500 mM NaCl, 500 mM imidazole, 20 mM NaPO4H2, pH 7.4). […] A Strep-Tactin column (IBA life sciences) was washed with fifteen CVs of buffer W. The Siglec-Fc-buffer W solution was then loaded in its entirety onto the column. […] Fractions containing Siglec-Fc were pooled and dialyzed against PBS to remove any d-Desthiobiotin. After dialysis, Siglec-Fcs were concentrated using an ultra-centrifugal device (30 kDa MWCO) and aliquoted into 5 µg aliquots, and frozen. The Siglec-Fcs were then lyophilized overnight, and the lyophilized Siglec-Fcs were stored at −20 °C.
Our ELISA approach was carried out similarly to previous work by Rapoport[12] and Yamakawa[44]. Ganglioside ethanol solutions (10 µM) were prepared and then transferred in 50 µL increments to a 96-well microplate. The ethanol was removed by drying the plates overnight at room temperature. The plates were then washed with PBS, dried, and then blocked with 5% (m/V) BSA PBS for 1 h. The plates were then washed with PBS and then 2 µg/mL Siglec-Fc precomplexed to Strep-Tactin (2 Siglec-Fc:1 Strep-Tactin monomer) horse radish peroxidase was added to the microplate. The complex was incubated with the plate at room temperature for 2 h. The unbound complexes were then removed by washing in PBS and the plate was developed with Sera care TMB solution. The amount of binding was then quantified by using the background (microplate well with no ligand) subtracted absorbance at 450 nm using a Molecular Devices SpectraMAX ® iD5.

[2] = target: T1, Siglec-9 WT CHO cells (Homo sapiens, UniProt Q9Y336); assay: Cell assay (liposome/EV binding, flow cytometry); format: cell-based; conditions: for log10(MFI AF647) of GLL relative to log10(MFI AF647) of the same GLL against UT CHO cells (Fig. 2a): Sig-9 WT†, † after treatment of cells with neuraminidase, 3 mol% ganglioside liposomes, replicates
T1 construct: expressed in transfected cells
Procedure: (§1) Stock lipids (DSPC, Cholesterol, PEG45–DSPE) solutions were prepared by solvating the lipids in chloroform. An appropriate volume of each lipid solution was transferred to a glass test tube to reach the desired mol% of the component. The chloroform was then removed under N2 gas to yield a lipid thin film. Once dry, 100 µL of DMSO was added to the lipid-containing test tube and then the functional lipids (ganglioside, AF647–PEG45–DSPE, Siglec ligand–PEG45–DSPE, pHrodo–PEG45–DSPE, NGL) was added from their respect DMSO stock solution. The lipid mixture was then stored at −80 °C until completely frozen at which point excess DMSO was removed via lyophilization. Dry lipids were then stored at −80 °C until they were extruded. Lipid suppliers can be found in Supplementary Table 4.
(§2) Dry lipids were then hydrated in 1 mL of PBS. The lipids were then sonicated in a bath sonicator in a cycle of 1 min on, 5 min off for a total of five cycles. Liposomes were then extruded using an Avanti mini extruder first using an 800 nm filter and then a 100 nm filter yielding liposomes that were 130 ± 35 nm (Supplementary Table 5) measured using a Malvern Panalytical Zetasizer Nano S. Liposomes were stored at 4 °C.
(§3) 200,000 cells/well were plated into a 96-well U-bottom microplate and centrifuged at 300 × g for 5 min. The cells were then resuspended in 50 µL of 50 µM liposome/50 µg/mL (protein concentration) of EV solution in DMEM F12 5% FBS and incubated at 37 °C for 30 min. Excess liposomes were then removed via centrifuged at 300 × g for 5 min followed by washing the cells with FACS solution. The cells were then resuspended in (1:250 V/V) anti-Siglec-flow buffer (1% V/V FBS, 500 µM, EDTA Hank’s Balanced Salt Solution pH 7.4), solution and left to rest on ice for 30 min. The cells were then centrifuged again at 300 × g for 5 min and the cells were resuspended in FACS buffer solution and were then ready for analysis by flow cytometry. Information regarding antibody clone, catalog number supplier, label isotype, and dilution can be found in Supplementary Table 6. The Siglec-positive cells were gated on for liposome-binding analysis (Supplementary Fig. 1b).
(§4) Flow cytometry measurements were collected on a 5-laser Fortessa X-20 (BD Bioscience). All the resulting data were analyzed using FlowJo (10.5.3) software (BD Biosciences).
(§5) Cells were harvested and resuspended in complete media with either Neuraminidase A or S. The cells were then placed in a 37 °C shaking incubator for 1 h. The cells were then washed with complete media and then the liposome binding assay was performed as described above.

[3] = target: T2, Siglec-7 WT CHO cells (Homo sapiens, UniProt Q9Y286); assay: Cell assay (liposome/EV binding, flow cytometry); format: cell-based; conditions: for log10(MFI AF647) of GLL relative to log10(MFI AF647) of the same GLL against UT CHO cells (Fig. 2a): Sig-7 WT†, † after treatment of cells with neuraminidase, 3 mol% ganglioside liposomes, replicates
T2 construct: expressed in transfected cells
Procedure: as §1, §2, §3, §4, §5

[4] = target: T3, Siglec-5 WT CHO cells (Homo sapiens, UniProt O15389); assay: Cell assay (liposome/EV binding, flow cytometry); format: cell-based; conditions: for log10(MFI AF647) of GLL relative to log10(MFI AF647) of the same GLL against UT CHO cells (Fig. 2a): Sig-5 WT†, † after treatment of cells with neuraminidase, 3 mol% ganglioside liposomes, replicates; for GLL binding to Siglec-5 (in words): cell assay, optimized liposomal formulation
T3 construct: expressed in transfected cells
T3 sequence (O15389 17-551): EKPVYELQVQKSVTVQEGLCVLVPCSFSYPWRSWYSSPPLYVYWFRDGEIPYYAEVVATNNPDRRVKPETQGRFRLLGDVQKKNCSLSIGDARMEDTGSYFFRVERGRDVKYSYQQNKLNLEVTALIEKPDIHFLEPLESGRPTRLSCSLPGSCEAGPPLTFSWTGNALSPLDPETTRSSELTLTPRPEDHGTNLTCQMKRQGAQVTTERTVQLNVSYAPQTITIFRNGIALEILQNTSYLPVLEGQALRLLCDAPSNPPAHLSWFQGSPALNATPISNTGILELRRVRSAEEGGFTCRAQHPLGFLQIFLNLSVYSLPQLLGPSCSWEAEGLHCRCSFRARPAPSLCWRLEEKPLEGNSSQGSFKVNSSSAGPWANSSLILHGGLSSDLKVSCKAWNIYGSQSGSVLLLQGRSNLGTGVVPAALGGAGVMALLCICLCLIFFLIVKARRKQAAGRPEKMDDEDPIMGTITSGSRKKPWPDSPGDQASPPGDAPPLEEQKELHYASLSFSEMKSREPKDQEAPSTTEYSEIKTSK
Procedure: as §1, §2, §3, §4, §5

[5] = target: T4, Siglec-9 R120A CHO cells (Homo sapiens, UniProt Q9Y336, R120A); assay: Cell assay (liposome/EV binding, flow cytometry); format: cell-based; conditions: Sig-9 R120A†; † after treatment of cells with neuraminidase; 3 mol% ganglioside liposomes; replicates
T4 construct: expressed in transfected cells
Procedure: as §1, §2, §3, §4, §5

T2 sequence (Q9Y286 19-467): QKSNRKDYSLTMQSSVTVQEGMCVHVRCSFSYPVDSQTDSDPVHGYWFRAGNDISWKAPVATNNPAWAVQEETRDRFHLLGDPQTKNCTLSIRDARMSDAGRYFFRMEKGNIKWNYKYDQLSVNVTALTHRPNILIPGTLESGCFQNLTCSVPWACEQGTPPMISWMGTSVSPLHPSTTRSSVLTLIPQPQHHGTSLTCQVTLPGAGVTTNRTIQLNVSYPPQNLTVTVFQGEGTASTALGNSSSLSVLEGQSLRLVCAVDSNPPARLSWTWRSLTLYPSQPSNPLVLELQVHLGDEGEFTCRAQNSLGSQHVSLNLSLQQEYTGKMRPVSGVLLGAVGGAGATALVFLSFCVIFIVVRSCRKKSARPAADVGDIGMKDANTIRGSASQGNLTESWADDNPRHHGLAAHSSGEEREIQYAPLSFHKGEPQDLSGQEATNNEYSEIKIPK
Chain of Siglec-1-Fc R116A (Q9BZZ2 20-136 R116A limits assumed): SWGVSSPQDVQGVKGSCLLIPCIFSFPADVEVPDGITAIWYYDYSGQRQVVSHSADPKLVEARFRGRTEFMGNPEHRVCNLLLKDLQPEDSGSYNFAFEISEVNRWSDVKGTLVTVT
T1 sequence (Q9Y336 18-463): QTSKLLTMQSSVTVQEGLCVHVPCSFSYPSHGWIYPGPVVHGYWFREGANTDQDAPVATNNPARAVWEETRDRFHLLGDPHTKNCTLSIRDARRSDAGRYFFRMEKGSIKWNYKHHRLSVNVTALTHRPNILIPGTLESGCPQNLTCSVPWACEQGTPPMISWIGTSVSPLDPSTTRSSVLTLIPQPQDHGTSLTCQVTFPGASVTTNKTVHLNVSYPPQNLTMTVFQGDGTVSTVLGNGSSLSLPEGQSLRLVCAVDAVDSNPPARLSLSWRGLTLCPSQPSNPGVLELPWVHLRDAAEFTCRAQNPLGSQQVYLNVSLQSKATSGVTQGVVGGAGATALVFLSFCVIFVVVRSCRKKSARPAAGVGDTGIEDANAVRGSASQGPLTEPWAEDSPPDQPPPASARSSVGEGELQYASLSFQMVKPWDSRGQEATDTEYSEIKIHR
T4 sequence (Q9Y336 18-463 R120A): as the sequence (Q9Y336 18-463) above, with R103A counted along it

Substance	ganglioside ELISA signal, Siglec-1 R [1]	log10(MFI AF647) of GLL relative to log10(MFI AF647) of the same GLL against UT CHO cells (Fig. 2a) [2]	log10(MFI AF647) of GLL relative to log10(MFI AF647) of the same GLL against UT CHO cells (Fig. 2a) [3]	log10(MFI AF647) of GLL relative to log10(MFI AF647) of the same GLL against UT CHO cells (Fig. 2a) [4]	log10(MFI AF647) of GLL relative to log10(MFI AF647) of the same GLL against UT CHO cells (Fig. 2a) [5]	GLL binding to Siglec-5 (in words) [4]	GLL binding to Siglec-7 with increasing ganglioside content (in words) ([3]; ganglioside titrated in GLLs, cells treated with neuraminidase S)	GLL binding to Siglec-9 (in words) ([2]; cell assay, optimized liposomal formulation)
GD1a	0.06 and 0.08 and 0.11 and 0.09	0.29 (2×) and 0.32	0.05 and 0.02 and 0.03	0.3 and 0.33 and 0.29	0.17 and 0.16 (3×)			
GD1b	0.11 and 0.13 and 0.17	0.27 (2×) and 0.29	0 and -0.03 and -0.01	0.26 and 0.29 and 0.23	0.12 (2×) and 0.14 (2×)	novel interactions were observed		
GD3	0.22 and 0.18 and 0.24 and 0.28	0.22 and 0.21 and 0.23	1.01 and 0.98 and 1.03	0.28 and 0.26 and 0.19	0.21 and 0.15 (2×) and 0.19		decreased above an optimal ganglioside content	
GM1	0.07 and 0.08 and 0.1 and 0.14	0.3 and 0.31 (2×)	-0.1 and -0.11 and -0.08	0.35 (2×) and 0.26	0.14 and 0.1 (2×) and 0.16	novel interactions were observed		
GM2	0.07 and 0.09 and 0.15 and 0.11	0.28 and 0.29 and 0.26	-0.02 and 0 (2×)	0.12 and 0.11 and 0.15	0.15 and 0.16 and 0.17 (2×)			novel interactions were observed
GM3	0.33 and 0.4 and 0.43 and 0.46	-0.03 and -0.01 (2×)	-0.16 and -0.14 and -0.13	-0.05 (2×) and -0.08	-0.21 and -0.17 and -0.15 and -0.13			
GM4	0.18 and 0.21 and 0.26 and 0.27	0.19 (2×) and 0.21	-0.07 and -0.06 and -0.04	0.08 (2×) and 0.05	0.05 and 0.07 and 0.08 (2×)			
GQ1b	-0.01 and -0.02 and 0	0.2 and 0.23 and 0.25	1.41 and 1.39 and 1.38	0.86 (2×) and 0.94	0.15 and 0.12 and 0.13 and 0.1			
GT1b	0.02 and 0.04 and 0.03	0.55 and 0.46 and 0.54	0.54 and 0.42 and 0.56	0.58 and 0.64 and 0.55	0.16 (2×) and 0.11 and 0.15			
